Data from patent publication US11827628B2, “Compositions and methods for inhibition of the JAK pathway” (Rigel Pharmaceuticals, Inc., priority 2005, dated 2023).
pIC50: −log10 of the molar value.

What was measured:
Primary human T-cells = experiment: Primary Human T-Cell Proliferation Assay Stimulated with IL-2 (CellTiter-Glo); type: cell-based; conditions: primary human T-cell proliferation stimulated with IL-2; read-out: IC50, Example 42
Summary of the method: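 IC50 derived from CellTiter-Glo ATP signal after 72 hours of IL-2-driven proliferation at 37° C. Cells: primary human T-cells from blood, stimulated beforehand 3-4 days on anti-CD3/anti-CD28 with IL-2, then rested from IL-2 before compound exposure in duplicate; IL-2-free wells served as unstimulated control.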

[1] = tested on: IL-4 stimulated expression of CD23 in human Ramos B cells (JAK-1 and JAK-3); experiment: Assay for Ramos B-Cell Line Stimulated with IL-4 (CD23 upregulation, FACS); type: cell-based; conditions: Ramos B-cell line stimulated with IL-4; CD23 expression by FACS; read-out: IC50, Example 41
Summary of the method: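 Read-out: anti-CD23-PE flow cytometry on Ramos B cells, giving IC50. Cells (5×10^4 per point, RPMI + 5% serum) get compound or DMSO for 1 h at 37 °C, then IL-4 50 units/mL final for 20-24 h.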

pIC50 [1] | Compound | pIC50 (Primary human T-cells)
6.87 | Cc1ccc(Nc2ncc(F)c(Nc3cccc(CNC(=O)C4CC4)c3)n2)cc1S(N)(=O)=O [III-40, N2-(3-aminosulfonyl-4-methyl)phenyl-N4-(3-cyclopropylcarbonylaminomethyl)phenyl-5-fluoro-2,4-pyrimidinediamine] | 6.64
6.65 | N#CCc1ccc(Nc2nc(Nc3ccc(F)c(S(N)(=O)=O)c3)ncc2F)cc1 [III-10, N2-(3-Aminosulfonyl-4-fluoro)phenyl-N4-(4-cyanomethyl)phenyl-5-fluoro-2,4-pyrimidinediamine] | 6.04
7.23 | Cc1cnc(Nc2ccc(S(N)(=O)=O)cc2)nc1Nc1ccc(CCC#N)cc1 [III-27, N2-(4-Aminosulfonylphenyl)-N4-(4-cyanoethylenephenyl)-5-methyl-2,4-pyrimidinediamine] | 6.92
6.93 | NS(=O)(=O)c1cccc(Nc2ncc(F)c(Nc3cccc(CNC(=O)C4CC4)c3)n2)c1 [III-39, N2-(3-aminosulfonyl)phenyl-N4-(3-cyclopropylcarbonylaminomethyl)phenyl-5-fluoro-2,4-pyrimidinediamine] | 6.89
7.19 | Cc1ccc(Nc2ncc(C)c(Nc3ccc(CCC#N)cc3)n2)cc1S(N)(=O)=O [III-11] | 7.34
7.12 | Cc1ccc(Nc2ncc(F)c(Nc3ccc(CCC#N)cc3)n2)cc1S(N)(=O)=O [III-15, N2-(3-Aminosulfonyl-4-methylphenyl)-N4-[4-(cyanoethylene)phenyl]-5-fluoro-2,4-pyrimidinediamine] | 6.97

The next lines start with the compound.

Compound | pIC50 [1] | pIC50 (Primary human T-cells)
Cc1noc(COc2ccc(Nc3nc(Nc4ccc(F)c(S(N)(=O)=O)c4)ncc3F)cc2)n1 [Compound I-266, N2-(3-Aminosulfonyl-4-fluorophenyl)-5-fluoro-N4-[4-(3-methyl-1,2,4-oxadiazol-5-yl)methyleneoxyphenyl]-2,4-pyrimidinediamine] | 7.07 | 6.70
CNS(=O)(=O)c1cc(Nc2ncc(F)c(Nc3ccc(OCc4csc(C)n4)cc3)n2)ccc1C [Compound I-282, 5-Fluoro-N2-[3-(N-methylaminosulfony)-4-methylphenyl]-N4-[4-(2-methylthiazol-4-yl)methyleneoxyphenyl]-2,4-pyrimidinediamine] | 6.47 | 6.16
CNS(=O)(=O)c1cc(Nc2ncc(F)c(Nc3ccc(OCc4cc(C)on4)cc3)n2)ccc1C [Compound I-235, 5-Fluoro-N2-[3-(N-methyl)aminosulfonyl-4-methylphenyl]-N4-[4-(5-methylisoxazol-3-yl)methyleneoxyphenyl]-2,4-pyrimidinediamine] | 6.75 | 6.33
Cc1cc(Nc2nc(Nc3ccc(S(N)(=O)=O)cc3)ncc2F)cc(C)c1OCC#N [Compound I-25, N2-(4-Aminosulfonyl)phenyl-N4-(4-cyanomethoxy-3,5-dimethyl)phenyl-5-fluoro-2,4-pyrimidinediamine] | 7.25 | 5.79
CCN(CC)CCNS(=O)(=O)c1cccc(Nc2ncc(F)c(Nc3ccc(OCc4cc(C)on4)cc3)n2)c1 [Compound I-241, N2-[3-(2-N,N-Diethylaminoethyl)aminosulfonylphenyl)-5-fluoro-N4-[4-(5-methylisoxazol-3-yl)methyleneoxyphenyl]-2,4-pyrimidinediamine] | 6.58 | 6.35
Cc1cc(COc2ccc(Nc3nc(Nc4cc(Cl)c(C)c(S(N)(=O)=O)c4)ncc3F)cc2C)no1 [Compound I-216, N2-(3-Aminosulfonyl-5-chloro-4-methylphenyl)-5-fluoro-N4-[3-methyl-4-(5-methylisoxazol-3-yl)methyleneoxyphenyl]-2,4-pyrimidinediamine] | 6.69 | 6.31
Cc1cc(COc2ccc(Nc3nc(Nc4ccc(F)c(S(N)(=O)=O)c4)ncc3F)cc2C)no1 [Compound I-237, N2-(3-Aminosulfonyl-4-fluorophenyl)-5-fluoro-N4-[3methyl-4-(5-methylisoxazol-3-yl)methyleneoxyphenyl]-2,4-pyrimidinediamine] | 6.83 | 5.69
Cc1ccc(Nc2ncc(F)c(Nc3ccc(OC4CCCN(C)C4)cc3)n2)cc1S(N)(=O)=O (racemic) [II-4, Racemic N2-(3-aminosulfonyl-4-methylphenyl)-5-fluoro-N4-{4-[(1-methylpiperidin-3-yl)oxy]phenyl}-2,4-pyrimidinediamine] | 6.50 | 5.63
Cc1nc(COc2ccc(Nc3nc(Nc4ccc(C)c(S(N)(=O)=O)c4)ncc3F)cc2)cs1 [Compound I-280, N2-(3-Aminosulfonyl-4-methylphenyl)-5-fluoro-N4-[4-(2-methylthiazol-4-yl)methyleneoxyphenyl]-2,4-pyrimidinediamine] | 6.84 | 6.01
N2-[3-Aminosulfonyl-4-(4-methylpiperazin-1-yl)phenyl]-5-fluoro-N4-[2-fluoro-4-(5-methylisoxazol-3-yl)methyleneoxyphenyl]-2,4-pyrimidinediamine [Compound I-251] | 6.78 | 6.81
Cc1noc(COc2ccc(Nc3nc(Nc4ccc(S(N)(=O)=O)cc4)ncc3F)cc2)n1 [Compound I-268, N2-(4-Aminosulfonylphenyl)-5-fluoro-N4-(4-[3-methyl-1,2,4-oxadiazol-5-yl]methyleneoxyphenyl)-2,4-pyrimidinediamine] | 7.22 | 6.85
Cc1cc(Nc2nc(Nc3ccc(C)c(S(N)(=O)=O)c3)ncc2F)ccc1OCC#N [Compound I-24, N2-(3-Aminosulfonyl-4-methyl)phenyl-N4-(4-cyanomethoxy-3-methyl)phenyl-5-fluoro-2,4-pyrimidinediamine] | 7.27 | 6.53
CN1CCC(Oc2ccc(Nc3nc(Nc4cccc(S(N)(=O)=O)c4)ncc3F)cc2)C1 (stereo not shown) [II-9, N2-(3-Aminosulfonylphenyl)-5-fluoro-N4-(N-methylpyrrolidin-3-yloxyphenyl)-2,4-pyrimidinediamine] | 6.64 | 5.88
N#CCOc1ccc(Nc2nc(Nc3ccc(F)c(S(N)(=O)=O)c3)ncc2F)cc1 [Compound I-33, N2-(3-Aminosulfonyl-4-fluoro)phenyl-N4-(4-cyanomethoxy)phenyl-5-fluoro-2,4-pyrimidinediamine] | 7.02 | 6.77
Cc1cc(Nc2nc(Nc3cccc(S(N)(=O)=O)c3)ncc2F)ccc1OCC#N [Compound I-23, N2-(3-Aminosulfonyl)phenyl-N4-(4-cyanomethoxy-3-methyl)phenyl-5-fluoro-2,4-pyrimidinediamine] | 7.52 | 7.05
Cc1cc(COc2ccc(Nc3nc(Nc4cc(C)c(F)c(S(N)(=O)=O)c4)ncc3F)cc2F)no1 [Compound I-224, N2-(3-Aminosulfonyl-4-fluoro-5-methylphenyl)-5-fluoro-N4-[3-fluoro-4-(5-methylisoxazol-3-yl)methyleneoxyphenyl]-2,4-pyrimidinediamine] | 7.44 | 6.71
Cc1cc(COc2ccc(Nc3nc(Nc4ccc(C)c(S(N)(=O)=O)c4)ncc3F)cc2F)no1 [Compound I-222, N2-(3-Aminosulfonyl-4-methylphenyl)-5-fluoro-N4-[3-fluoro-4-(5-methylisoxazol-3-yl)methyleneoxyphenyl]-2,4-pyrimidinediamine] | 7.48 | 6.23
